According to PubChem BioAssay (NCI):
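Test compounds were applied to cells in 96-well plates for 48 hours at 5 doses. TGI denotes the concentration required for complete inhibition of growth.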

Tests used:
Test in all cases: growth of human tumour cells (NCI), 48 h
[1] = test system: MDA-N
[2] = test system: HOP-92 NSCLC
[3] = test system: SF-295 CNS
[4] = test system: U251 CNS
[5] = test system: TK-10 renal
[6] = test system: SNB-19 CNS
[7] = test system: A498 renal
[8] = test system: SK-OV-3 ovarian
[9] = test system: OVCAR-4 ovarian
[10] = test system: EKVX NSCLC
[11] = test system: RXF 393 renal
[12] = test system: NCI-H522 lung
[13] = test system: SK-MEL-5 melanoma
[14] = test system: UO-31 renal
[15] = test system: UACC-62 melanoma
[16] = test system: LOX IMVI melanoma
[17] = test system: HOP-62 NSCLC
[18] = test system: SK-MEL-2 melanoma
[19] = test system: M14 melanoma
[20] = test system: T-47D breast
[21] = test system: BT-549 breast
[22] = test system: OVCAR-8 ovarian
[23] = test system: NCI-H226 lung
[24] = test system: MDA-MB-231 breast
[25] = test system: A549 NSCLC
[26] = test system: HS 578T breast
[27] = test system: HCT-116 colon
[28] = test system: SW-620 colon
[29] = test system: NCI-H23 lung
[30] = test system: MDA-MB-435
[31] = test system: SF-539 CNS
[32] = test system: OVCAR-3 ovarian
[33] = test system: 786-0 renal
[34] = test system: PC-3 prostate
[35] = test system: CAKI-1 renal
[36] = test system: HCT-15 colon
[37] = test system: HCC-2998 colon
[38] = test system: COLO 205 colon
[39] = test system: SK-MEL-28 melanoma
[40] = test system: SNB-75 CNS
[41] = test system: MALME-3M melanoma
[42] = test system: IGROV1 ovarian
[43] = test system: SF-268 CNS
[44] = test system: UACC-257 melanoma
[45] = test system: SR leukemia
[46] = test system: NCI-H460 lung
[47] = test system: MOLT-4 leukemia
[48] = test system: K-562 leukemia
[49] = test system: ACHN renal
[50] = test system: HT29 colon
[51] = test system: RPMI-8226 leukemia
[52] = test system: KM12 colon
[53] = test system: DU-145 prostate
[54] = test system: NCI/ADR-RES ovarian
[55] = test system: OVCAR-5 ovarian
[56] = test system: SN12C renal
[57] = test system: MCF7 breast

Measured: TGI

Nc1nc(Cl)cc(NCCO)n1
> 100 µM: all assays above
